Source: PMC4264174, “The Discovery of Aurora Kinase Inhibitor by Multi-Docking-Based Virtual Screening” (International Journal of Molecular Sciences, 2014)

What was measured:
[1] = molecular target: T1, Aurora-A (h) (Homo sapiens, UniProt O14965); assay: Kinase Profiler in vitro assay (Merck Millipore), aurora-A; format: biochemical; conditions: for inhibition at 100 µM: Aurora-A, at 100 μM concentration, with standard deviation; for IC50: at aurora A (h)
T1 construct: purchased Merck Millipore, Inc. (Abingdon, UK), Kinase Profiler service
T1 sequence (O14965 1-403): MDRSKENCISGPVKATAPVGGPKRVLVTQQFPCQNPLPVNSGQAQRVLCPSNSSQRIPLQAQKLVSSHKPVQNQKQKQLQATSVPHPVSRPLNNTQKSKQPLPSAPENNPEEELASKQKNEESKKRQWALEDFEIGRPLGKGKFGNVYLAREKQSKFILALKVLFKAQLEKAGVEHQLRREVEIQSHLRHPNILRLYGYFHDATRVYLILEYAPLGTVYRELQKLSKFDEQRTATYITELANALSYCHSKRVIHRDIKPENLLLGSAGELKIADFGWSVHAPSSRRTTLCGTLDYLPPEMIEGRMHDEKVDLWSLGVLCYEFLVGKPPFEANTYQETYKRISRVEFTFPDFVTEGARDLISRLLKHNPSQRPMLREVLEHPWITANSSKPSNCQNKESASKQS
Procedure: The fragments obtained from the above-mentioned docking study were purchased from commercial websites and evaluated using the Kinase Profiler in vitro assay technique developed by Merck Millipore, Inc., (Abingdon, UK). The aurora-A kinase was maintained with 8 mM […] at pH 7.0, 0.2 mM EDTA, 200 μM LRRASLG (Kemptide, American peptide Company, Sunnyvale, CA, USA), 10 mM MgAcetate, and [γ-33P-ATP]. The kinase reaction began with the addition of the MgATP mixture. The buffer-MgATP mixture was incubated for 40 min at room temperature. After incubation, the reaction was stopped through the addition of a 3% phosphoric acid solution. Then, a 10 μL reaction was spotted onto a P30 filtermat. The spotted P30 filtermat was washed three times for 5 min in 50 mM phosphoric acid and once in methanol prior to the drying and scintillation counting step.

[2] = molecular target: T2, Aurora-B (h) (Homo sapiens, UniProt Q96GD4); assay: Kinase Profiler in vitro assay, aurora-B; format: biochemical
T2 construct: purchased Merck Millipore, Inc. (Abingdon, UK), Kinase Profiler service

[3] = molecular target: T3, Aurora-C (h) (Homo sapiens, UniProt Q9UQB9); assay: Kinase Profiler in vitro assay, aurora-C; format: biochemical
T3 construct: purchased Merck Millipore, Inc. (Abingdon, UK), Kinase Profiler service
T3 sequence (Q9UQB9 1-309): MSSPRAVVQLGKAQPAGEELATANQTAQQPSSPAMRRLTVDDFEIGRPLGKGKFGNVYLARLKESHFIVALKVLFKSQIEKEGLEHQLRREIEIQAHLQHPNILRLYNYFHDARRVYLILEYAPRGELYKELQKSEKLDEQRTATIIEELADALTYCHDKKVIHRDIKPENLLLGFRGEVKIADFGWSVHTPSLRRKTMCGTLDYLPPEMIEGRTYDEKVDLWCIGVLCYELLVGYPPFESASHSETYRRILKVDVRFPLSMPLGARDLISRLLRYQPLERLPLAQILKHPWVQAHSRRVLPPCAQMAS

[4] = system: aurora-A; conditions: cited from earlier work

T2 sequence (Q96GD4 whole entry): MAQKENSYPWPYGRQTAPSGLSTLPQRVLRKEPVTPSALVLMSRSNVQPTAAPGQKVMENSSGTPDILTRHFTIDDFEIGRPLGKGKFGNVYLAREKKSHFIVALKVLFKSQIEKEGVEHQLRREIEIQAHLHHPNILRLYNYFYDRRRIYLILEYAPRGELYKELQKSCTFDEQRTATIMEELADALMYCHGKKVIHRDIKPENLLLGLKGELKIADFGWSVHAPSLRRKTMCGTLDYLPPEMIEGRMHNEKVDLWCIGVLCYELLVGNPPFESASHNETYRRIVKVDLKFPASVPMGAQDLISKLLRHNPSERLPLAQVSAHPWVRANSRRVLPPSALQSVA

SMILES	inhibition at 100 µM [1]	further results
Cc1nonc1-c1ccnc2nnc(N)n12 [Fragment 9]	8 ± 10%	–
O=C1C(Nc2ccc(Cl)cc2)=C(Cl)C(=O)c2[nH]c(C(F)(F)F)nc21 [Compound 16]	–	inhibition at 10 µM [1]: 52%; IC50 [1]: 9.17 µM; inhibition at 10 µM [2]: 84 ± 1%; inhibition at 10 µM [3]: 8 ± 8%
O=C1C(Nc2cccc(Cl)c2)=C(Cl)C(=O)c2[nH]c(C(F)(F)F)nc21 [Compound 17]	–	inhibition at 10 µM [1]: 65%; IC50 [1]: 7.47 µM; inhibition at 10 µM [2]: 76 ± 1%; inhibition at 10 µM [3]: 17 ± 4%
Cc1cc(C)cc(Nc2ncc3c(n2)C[C@@H](c2cccs2)CC3=O)c1 [Fragment 3]	> 50%	–
COC(=O)CSc1nnc(-c2n[nH]c3c2CCC3)n1N [Fragment 4]	28 ± 1%	–
COC(=O)/C=C1\S/C(=N\NC(=O)c2snnc2C)NC1=O [Fragment 7]	35 ± 3%	–
CN[C@@H]1C[C@H]2O[C@@](C)([C@@H]1OC)n1c3ccccc3c3c4c(c5c6ccccc6n2c5c31)C(=O)NC4 [Staurosporine, reference compound]	–	inhibition at 10 µM [1]: 100%
Cc1nnsc1C(=O)Nc1onc2c1CSC2 [Fragment 13]	> 50%	–

More lines, main results first:

inhibition at 100 µM [1]	SMILES	further results
24 ± 4%	COC(=O)c1nc2[nH]c(=O)cc(C)n2n1 [Fragment 8]	–
93 ± 2%	O=C1C=CC(=O)c2[nH]c(C(F)(F)F)nc21 [Fragment 12]	–
25 ± 2%	COc1cnc(NCc2ncn[nH]2)nc1-c1ccnn1C [Fragment 11]	–
13 ± 12%	O=c1cc(-c2ccccc2)[nH]c2nc(SCc3ccccc3)nn12 [Fragment 2]	–
31 ± 6%	Cc1nn2c(nc3ccccc32)[nH]c1=O [Fragment 5]	–
2 ± 15%	C/C=C/C(=O)Nn1cnc2c(cnn2-c2ccccc2)c1=O [Fragment 15]	–
39 ± 3%	O=C(Nc1onc2c1CCCC2)c1nc(-c2cnccn2)no1 [Fragment 14]	–
